SMILES strings stand for the structures. Where two headings read alike, the source gives them in different places.

The test system of one assay is SIN3A. As to conditions: K-562 cell lysate.
The test system of the next assay is recombinant HDACs 1-11. The assay can be described thus: Binding of probe matrix to recombinant HDACs purified from Sf9 cells, competition by free SAHA. The settings on record: recombinant HDACs 1-11 purified from Sf9 cells.
The test system of the next assay is GATAD2A. The assay can be described thus: Competition binding assay in cell lysate, affinity matrix, MS (Mi-2/NuRD interactor). The settings on record: K-562 cell lysate.
The target in the next assay is T1, NOSIP (Homo sapiens, UniProt Q9Y314).
T1 construct: endogenous in cells
T1 sequence (Q9Y314 whole entry): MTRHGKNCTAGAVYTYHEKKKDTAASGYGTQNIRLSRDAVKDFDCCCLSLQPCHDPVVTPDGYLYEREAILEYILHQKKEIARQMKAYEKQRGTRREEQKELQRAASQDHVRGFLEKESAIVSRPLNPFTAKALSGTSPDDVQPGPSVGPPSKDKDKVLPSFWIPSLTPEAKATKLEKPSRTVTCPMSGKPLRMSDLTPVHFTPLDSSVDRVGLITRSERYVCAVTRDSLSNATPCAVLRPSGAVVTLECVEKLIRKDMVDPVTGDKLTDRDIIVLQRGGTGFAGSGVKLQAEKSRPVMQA
The assay can be described thus: Competition binding assay in cell lysate, affinity matrix, MS.

The subject of a further assay is SAP30. In words: Competition binding assay in cell lysate, affinity matrix, MS (Sin3 interactor). The settings on record: K-562 cell lysate. The arrangement: species or system human.
Another assay relates to RBBP4. The settings on record: K-562 cell lysate.
The next assay has as its target T2, ISOC2 (Homo sapiens, UniProt Q96AB3).
T2 construct: endogenous in cells
The assay can be described thus: Competition binding assay in cell lysate, affinity matrix, MS.

Another assay concerns the target T3, WDR5 (Homo sapiens, UniProt P61964).
T3 construct: endogenous in cells
Described as above.

For another assay, the system named is IFNα secretion. In words: IFNα secretion assay in peripheral blood mononuclear cells stimulated with ODN2216. As to conditions: Homo sapiens, PBMC, read-out: EC50 inhibition of secretion of IFNα.
Assay [1] addresses MiDAC complex (HDAC1/2, DNTTIP1, CDYL, MIDEAS) (Homo sapiens, UniProt Q13547+Q92769). In words: Chemoproteomic binding profiling, K562 cell extract, SAHA/ITF2357 probe matrix (Kd app). The arrangement: Kd^app MIDEAS; other: protein MIDEAS; MiDAC complex; Kd^app DNTTIP1; other: protein DNTTIP1.
A further assay concerns the target T4, HDAC6 (Homo sapiens, UniProt Q9UBN7).
T4 sequence (Q9UBN7 1-1215): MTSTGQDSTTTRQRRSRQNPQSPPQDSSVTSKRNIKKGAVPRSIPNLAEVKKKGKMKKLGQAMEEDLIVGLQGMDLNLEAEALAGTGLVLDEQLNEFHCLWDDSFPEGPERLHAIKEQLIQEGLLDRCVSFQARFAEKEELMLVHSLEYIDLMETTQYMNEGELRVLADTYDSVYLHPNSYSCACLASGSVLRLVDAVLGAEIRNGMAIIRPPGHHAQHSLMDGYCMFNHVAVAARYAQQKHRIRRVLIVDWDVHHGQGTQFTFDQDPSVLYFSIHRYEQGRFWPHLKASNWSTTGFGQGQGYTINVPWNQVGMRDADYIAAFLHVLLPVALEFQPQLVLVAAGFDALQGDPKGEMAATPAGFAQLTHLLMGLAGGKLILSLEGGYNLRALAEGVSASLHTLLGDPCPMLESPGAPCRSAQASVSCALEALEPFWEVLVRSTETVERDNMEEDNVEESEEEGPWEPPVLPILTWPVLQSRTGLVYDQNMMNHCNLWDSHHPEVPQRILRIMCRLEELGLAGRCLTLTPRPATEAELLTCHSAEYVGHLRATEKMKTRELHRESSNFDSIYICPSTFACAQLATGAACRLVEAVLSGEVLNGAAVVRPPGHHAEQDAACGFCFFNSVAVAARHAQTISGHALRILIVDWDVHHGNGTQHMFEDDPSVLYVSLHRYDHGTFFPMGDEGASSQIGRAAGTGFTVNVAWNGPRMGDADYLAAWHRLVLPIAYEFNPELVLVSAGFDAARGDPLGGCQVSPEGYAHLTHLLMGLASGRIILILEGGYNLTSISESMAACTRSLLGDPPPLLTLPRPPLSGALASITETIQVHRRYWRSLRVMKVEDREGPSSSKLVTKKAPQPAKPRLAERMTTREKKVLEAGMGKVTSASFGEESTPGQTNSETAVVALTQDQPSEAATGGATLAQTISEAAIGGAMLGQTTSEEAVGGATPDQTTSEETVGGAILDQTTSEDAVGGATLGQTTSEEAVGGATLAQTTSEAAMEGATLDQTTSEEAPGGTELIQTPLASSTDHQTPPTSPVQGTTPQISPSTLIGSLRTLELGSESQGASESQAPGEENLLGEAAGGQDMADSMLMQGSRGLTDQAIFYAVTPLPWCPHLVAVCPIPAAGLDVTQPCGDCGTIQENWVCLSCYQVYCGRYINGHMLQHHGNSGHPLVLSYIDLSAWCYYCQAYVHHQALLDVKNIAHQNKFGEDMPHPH
The assay can be described thus: Compound screening, competition binding with SAHA-beads, antibody dot-blot arrays, Jurkat and Ramos whole cell extract. Set-up: endogenous in cells; Jurkat/Ramos whole cell extract. The text has this: To enable the discovery of novel selective HDACi we developed a high throughput variation of the chemoproteomics protocol in which MS/MS detection is replaced with multiplexed fluorescent antibody detection on “dot blot” type arrays. The method was applied to the screening of a focused compound library in whole cell extract of Jurkat and Ramos cells for inhibitors of HDAC1, 2, 3 and 6. Several hits were obtained with a few compounds displaying a notable degree of selectivity (FIG. 35a). […] The cellular potency for tubulin deacetylation correlated with the potency for one of the drugs' anti-inflammatory effects, the secretion of IFNα in peripheral blood mononuclear cells (FIG. 35d).
The compounds for screening was selected either for their potential to be Zinc chelators or based on a similarity search of the compound collections from Asinex Corp. (Winston-Salem, N.C., USA) and Enamine (Mammouth_Jct., NJ, USA), using a training set of 140 known HDAC inhibitors. Competition binding assays using SAHA-beads were performed essentially as described above but adapted to a 96-well format. 1 mg of cell lysate and 5 μl of beads were used per well. Compounds from the screening library including reference compounds as standards were added at 20 μM and 100 μM final concentration from 50×DMSO stocks. Each plate contained 8 positive (TSA 50 μM) and eight negative controls (2% DMSO). […]

Assay [2] relates to T5, MiDAC complex (HDAC1/2, DNTTIP1, CDYL, MIDEAS).
T5 construct: Kd^app MIDEAS; other: protein MIDEAS; MiDAC complex; Kd^app DNTTIP1; other: protein DNTTIP1
In words: Chemoproteomic binding profiling, K562 cell extract, SAHA/ITF2357 probe matrix (Kd app). The arrangement: species or system human.

Assay [3] has as its system histone acetylation, K562 cells. In words: Mapping of histone acetylation by LC-MS/MS of K562 cells treated with HDACi. It is filed as cell-based, human. The settings on record: K562 cells treated 6 hours, isobaric tagging and MS/MS.
The mark [4] stands for this setting: protein DNTTIP1, read-out: Kd^app DNTTIP1.
The mark [5] stands for this setting: protein MIDEAS, read-out: Kd^app MIDEAS.

T2 sequence (Q96AB3 whole entry): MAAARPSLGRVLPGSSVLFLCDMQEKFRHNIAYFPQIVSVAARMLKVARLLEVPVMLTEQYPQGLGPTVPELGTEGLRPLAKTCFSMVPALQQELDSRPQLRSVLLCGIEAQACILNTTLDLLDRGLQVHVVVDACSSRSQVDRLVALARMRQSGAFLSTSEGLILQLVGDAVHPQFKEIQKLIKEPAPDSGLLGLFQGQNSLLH

As usually defined, the IC50 is the concentration at which inhibition is half-maximal. Higher therefore signals weaker potency in that assay. In turn, `O=C(CCCCCCC(=O)Nc1ccccc1)NO` [SAHA, suberoylanilide hydroxamic acid] gave an IC50 in the assay with SIN3A of 0.57 µM. Also, in the assay on recombinant HDACs 1-11, the “competition of capture of recombinant HDACs by the probe matrix (in words)” value is recorded as “only affected at a high excess of free SAHA”.
Take `Nc1ccccc1NC(=O)c1ccc(CNC(=O)OCc2cccnc2)cc1` [MS-275]: the IC50 with GATAD2A was 300 µM; on NOSIP it was at least 300 µM; in the assay on SAP30, 300 µM; in the assay on RBBP4, 300 µM; on ISOC2, at least 300 µM; at WDR5 it was at least 300 µM.
As usually defined, the EC50 is the concentration giving half of the maximal effect. Turning to `CCCCOc1ccc(CC(=O)NO)cc1` [bufexamac], the EC50 in the assay with IFNα secretion amounted to 8.9 µM. Besides, the Kd in assay [1] (setting [4]) was determined as 418 µM; in [1] (setting [5]) it was 476 µM. On HDAC6, the “screen result for HDAC6 (in words)” value is “preferentially affect HDAC6”.
On to `Nc1ccccc1NC(=O)CCCCCCC(=O)Nc1ccccc1` [BML-210], for which the Kd in assay [2] (setting [4]) and in [2] (setting [5]) was over 85 µM in each case.
Take `CCCC(CCC)C(=O)O` [valproate, valproic acid]: the “abundance of acetylated histone peptides (in words)” value in [3] is reported as “more selective effect”.
